The values that follow come from US11136432B2, “Method for producing polyisothianaphthene-based electroconductive polymer” (SHOWA DENKO K.K., priority 2016, dated 2021).

The nature of data set [1]: Solubility test: amount dissolved in 10 g of solvent, visually inspected. It counts as physicochemical. The method, then:
Benzo[c]thiophene-1,3-dihydro-2-oxide was dissolved a little at a time in 10 g of a solvent, and the amount of dissolution was visually inspected.
1,3-dihydroisothianaphthene was dissolved a little at a time in 10 g of a solvent.

The nature of data set [2]: Stability test after dissolution: visual observation of the solution. It counts as physicochemical. The conditions noted are these: in the air. The method, then: 1.0 g of benzo[c]thiophene-1,3-dihydro-2-oxide and 0.25 g of p-toluenesulfonic acid-hydrate (pTSA, molar ratio: 5/1) were dissolved in 11.0 g of each solvent (solid content: 10 mass %) in composition as shown in Table 3 in the air. The solution was visually observed immediately (early period), 24 hours, and one week after the dissolution.
1.0 g of 1,3-dihydroisothianaphthene and 0.28 g of p-toluenesulfonic acid-hydrate (pTSA, molar ratio: 5/1) were dissolved in 11.3 g of each solvent (solid content: 10 mass %) in composition as shown in Table 4 in the air. The solution was visually observed immediately (early period), 24 hours, and one week after the dissolution.
A part of the prepared aqueous solution was delivered by drops onto a glass plate, followed by heating and drying at 120° C. for 1 hour. The generated solid was black. The generation of polyisothianaphthene was confirmed from the measurement of the UV spectrum obtained by adding the product to water.
A part of the prepared solution was delivered by drops onto a glass plate, followed by heating and drying at 120° C. for 1 hour. The generated solid was black. The generation of polyisothianaphthene was confirmed from the measurement of the UV spectrum obtained by adding the product to water.

The mark [3] stands for this setting: 4° C., DMSO, pTSA (molar ratio 5/1), solid content 10 mass %.
Setting [4] is: 25° C., DMSO, pTSA (molar ratio 5/1), solid content 10 mass %.
Setting [5] is: 25° C., EtOH, pTSA (molar ratio 5/1), solid content 10 mass %.
Where [6] appears, read: 25° C., solvent None, catalyst None.

Molecules are shown by their SMILES.

As to `[O-][S+]1Cc2ccccc2C1` [Example 1, benzo[c]thiophene-1,3-dihydro-2-oxide], the Dissolution amount entry in data set [1] (solvent: Dimethyl formamide), in data set [1] (solvent: Dimethyl sulfoxide), in data set [1] (solvent: Ethanol), in data set [1] (solvent: Ethylene glycol), in data set [1] (solvent: Isopropanol) and in data set [1] (solvent: Methanol) was “Soluble” each time. Besides, the Dissolution amount result in data set [1] (solvent: Water) is given as “Soluble”.
`c1ccc2c(c1)CSC2` [Comparative Example 1, 1,3-dihydroisothianaphthene]: the “Visual observation After 1 week” value is listed as “Pale yellow” in data set [2] (setting [3]), “Deep blue” in data set [2] (setting [4]), “Deep blue” in data set [2] (setting [5]) and “Pale brown” in data set [2] (setting [6]). The “Visual observation After 24 hours” value is recorded as “Pale yellow” in data set [2] (setting [3]), “Pale brown” in data set [2] (setting [4]), “Brownish red” in data set [2] (setting [5]) and “Pale yellow” in data set [2] (setting [6]). The Dissolution amount entry in data set [1] (solvent: Dimethyl formamide) is “Soluble”; in data set [1] (solvent: Dimethyl sulfoxide) it was “Soluble”; in data set [1] (solvent: Ethanol), “Soluble”; in data set [1] (solvent: Ethylene glycol), “Insoluble”; in data set [1] (solvent: Isopropanol) it was “Soluble”; in data set [1] (solvent: Methanol), “Slightly soluble”. The Dissolution amount result in data set [1] (solvent: Water) was “Insoluble”.
